Series [1] in a line: Highest frequency of moderate liver toxicity observed during clinical trials, expressed as a percentage. [column '% BIOL' in source]. To be noted: human.
Series [2] is described as follows: Highest frequency of acute liver toxicity observed during clinical trials, expressed as a percentage. [column '% AIGUE' in source]. To be noted: human.
For series [3] the following is noted: human, serum.
For series [4] the following is noted: human, serum. This is another data set of the same source.
The conditions of series [5]: human.
For series [6] the following is noted: human. The source holds these as a separate data set.
The conditions of series [7]: human. This is another data set of the same source.
For series [8] the following is noted: human, serum, 4383 h.
The conditions of series [9]: human. The source holds these as a separate data set.
For series [10] the following is noted: human. This is another data set of the same source.
The conditions of series [11]: human. The source holds these as a separate data set.
For series [12] the following is noted: human. This is another data set of the same source.
The conditions of series [13]: human. The source holds these as a separate data set.
For series [14] the following is noted: human. The source holds these as a separate data set.
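For Hepatotoxicity (association with vascular disease) in this document: count of indexed literature references reporting vascular liver injury in humans, e.g. peliosis hepatitis, hepatic veno-occlusive disease or Budd-Chiari syndrome.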
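For Hepatotoxicity (benign tumour) in this document: value is a count of indexed literature references citing a benign tumour confirmed by histopathology.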
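For Hepatotoxicity (choleostasis) in this document: human cholestatic liver injury, shown by histopathology or by peak ALT or AST elevation over alkaline phosphatase ratio below 2, value counts indexed literature reports.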
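For Hepatotoxicity (chronic liver disease) in this document: chronic liver injury confirmed by histopathology or persistently raised serum aminotransferase activity beyond 6 months, value given as the count of indexed literature references.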
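For Hepatotoxicity (cirrhosis) in this document: value is a count of indexed literature references reporting cirrhosis confirmed by histopathology.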
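For Hepatotoxicity (cytolytic) in this document: human cytolytic liver injury, shown by histopathology or by a ratio above 5 of peak ALT or AST elevation to alkaline phosphatase elevation, value counts indexed references.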
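For Hepatotoxicity (granulomatous hepatitis) in this document: value is a count of indexed literature references reporting granulomatous liver disease confirmed by histopathology.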
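For Hepatotoxicity (malignant tumour) in this document: malignant tumour confirmed by histopathology, value gives the count of indexed literature references reporting it.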
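For Hepatotoxicity (severe hepatitis) in this document: human clinical data: severe hepatitis, meaning potentially life-threatening liver failure or clinically observed cases, the value counts how many indexed literature references report it.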
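For Hepatotoxicity (steatosis) in this document: steatosis confirmed by histopathology, value is the count of indexed references.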

As for `C[C@@H](O)[C@H]1C(=O)N2C(C(=O)O)=C([C@H]3CCCO3)S[C@H]12` [FAROPENEM], the “Hepatotoxicity (moderate)” value is reported as 20% in series [1] and 39 in [3]. Also, the “Hepatotoxicity (acute)” value in [2] came to 0%; in series [4], 0. Further, the “Hepatotoxicity (cytolytic)” value in [5] is on record as 0. For the same molecule, the “Hepatotoxicity (choleostasis)” value in [6] stood at 0. Further, the “Hepatotoxicity (severe hepatitis)” value in [7] was determined as 0. Also, in series [8], the “Hepatotoxicity (chronic liver disease)” value stood at 0. The “Hepatotoxicity (cirrhosis)” value in series [9] was determined as 0. In series [10], the “Hepatotoxicity (granulomatous hepatitis)” value is given as 0. Moreover, the “Hepatotoxicity (association with vascular disease)” value in [11] is 0. In addition, the “Hepatotoxicity (steatosis)” value in series [12] amounted to 0. Moreover, in series [13], the “Hepatotoxicity (malignant tumour)” value was found to be 0. Besides, the “Hepatotoxicity (benign tumour)” value in [14] was found to be 0.

With `CCOC(=O)OC(C)OC(=O)[C@@H]1N2C(=O)[C@@H](NC(=O)[C@H](N)c3ccccc3)[C@H]2SC1(C)C` (stereo partly drawn) [BACAMPICILLIN], the “Hepatotoxicity (moderate)” value in [1] was 0%; in [3], 2. Also, the entries for the “Hepatotoxicity (acute)” value in series [2] and in series [4] were 0% and 0, respectively. For the same molecule, the “Hepatotoxicity (cytolytic)” value in series [5] is reported as 0. Also, the “Hepatotoxicity (choleostasis)” value in series [6] was 0. Moreover, in [7], the “Hepatotoxicity (severe hepatitis)” value is recorded as 0. Also, the “Hepatotoxicity (chronic liver disease)” value in series [8] was determined as 0. In series [9], the “Hepatotoxicity (cirrhosis)” value came to 0. Further, in series [10], the “Hepatotoxicity (granulomatous hepatitis)” value is 0. Besides, in [11], the “Hepatotoxicity (association with vascular disease)” value is on record as 0. Also, the “Hepatotoxicity (steatosis)” value in [12] stood at 0. In addition, the “Hepatotoxicity (malignant tumour)” value in series [13] is on record as 0. Further, the “Hepatotoxicity (benign tumour)” value in [14] was 0.

Consider `CCOC(=O)C1=C(C)NC(C)=C(C(=O)OCC)C1c1ccccc1/C=C/C(=O)OC(C)(C)C` [LACIDIPINE], for which the “Hepatotoxicity (moderate)” value in [1] is 0%; in [3], 1. Further, the “Hepatotoxicity (acute)” value in [2] worked out at 0%; in series [4] it was 0. Moreover, the “Hepatotoxicity (cytolytic)” value in series [5] amounted to 0. In addition, the “Hepatotoxicity (choleostasis)” value in series [6] came out at 0. For the same molecule, in series [7], the “Hepatotoxicity (severe hepatitis)” value is on record as 0. Moreover, in series [8], the “Hepatotoxicity (chronic liver disease)” value amounted to 0. Also, in series [9], the “Hepatotoxicity (cirrhosis)” value was 0. Also, in series [10], the “Hepatotoxicity (granulomatous hepatitis)” value turned out to be 0. The “Hepatotoxicity (association with vascular disease)” value in series [11] came to 0. Also, the “Hepatotoxicity (steatosis)” value in series [12] is reported as 0. Besides, the “Hepatotoxicity (malignant tumour)” value in series [13] is 0. In [14], the “Hepatotoxicity (benign tumour)” value was found to be 0.

For the molecule `COc1cccc2c1C(=O)c1c(O)c3c(c(O)c1C2=O)C[C@@](O)(C(=O)CO)C[C@@H]3O[C@H]1C[C@H](N)[C@H](O[C@@H]2CCCCO2)[C@H](C)O1` [PIRARUBICIN], the “Hepatotoxicity (moderate)” value in [1] stood at 1.1%; in [3], 1. The “Hepatotoxicity (acute)” value in [2] was 0%; in series [4] it was 0. The “Hepatotoxicity (cytolytic)” value in series [5] was found to be 0. Further, the “Hepatotoxicity (choleostasis)” value in [6] came out at 0. Also, the “Hepatotoxicity (severe hepatitis)” value in series [7] was determined as 0. Besides, the “Hepatotoxicity (chronic liver disease)” value in series [8] was 0. In addition, the “Hepatotoxicity (cirrhosis)” value in series [9] is given as 0. The “Hepatotoxicity (granulomatous hepatitis)” value in series [10] stood at 0. The “Hepatotoxicity (association with vascular disease)” value in series [11] stood at 0. For the same molecule, the “Hepatotoxicity (steatosis)” value in [12] was determined as 0. For the same molecule, the “Hepatotoxicity (malignant tumour)” value in series [13] turned out to be 0. In addition, in series [14], the “Hepatotoxicity (benign tumour)” value is reported as 0.

On to GENTAMICIN, for which the “Hepatotoxicity (moderate)” value is reported as 14.3% in series [1] and 7 in series [3]. Moreover, the figures for the “Hepatotoxicity (acute)” value in series [2] and in [4] were 0% and 0, respectively. Further, the “Hepatotoxicity (cytolytic)” value in [5] stood at 0. Also, the “Hepatotoxicity (choleostasis)” value in series [6] is recorded as 0. In series [7], the “Hepatotoxicity (severe hepatitis)” value worked out at 0. In addition, the “Hepatotoxicity (chronic liver disease)” value in series [8] came out at 0. The “Hepatotoxicity (cirrhosis)” value in [9] is 0. Moreover, in series [10], the “Hepatotoxicity (granulomatous hepatitis)” value is reported as 0. The “Hepatotoxicity (association with vascular disease)” value in series [11] stood at 0. In addition, the “Hepatotoxicity (steatosis)” value in series [12] is 0. The “Hepatotoxicity (malignant tumour)” value in series [13] is on record as 0. The “Hepatotoxicity (benign tumour)” value in series [14] amounted to 0.

For `C[C@H]1COc2c(C3(N)CC3)c(F)cc3c(=O)c(C(=O)O)cn1c23` [PAZUFLOXACIN], the “Hepatotoxicity (moderate)” value worked out at 11.1% in series [1] and 31 in series [3]. Also, the “Hepatotoxicity (acute)” value in [2] came out at 0%; in series [4] it was 0. Also, in series [5], the “Hepatotoxicity (cytolytic)” value turned out to be 0. The “Hepatotoxicity (choleostasis)” value in [6] is recorded as 0. The “Hepatotoxicity (severe hepatitis)” value in [7] is reported as 0. In addition, in series [8], the “Hepatotoxicity (chronic liver disease)” value was found to be 0. The “Hepatotoxicity (cirrhosis)” value in [9] is listed as 0. In addition, the “Hepatotoxicity (granulomatous hepatitis)” value in series [10] was 0. Further, in [11], the “Hepatotoxicity (association with vascular disease)” value stood at 0. In series [12], the “Hepatotoxicity (steatosis)” value was 0. The “Hepatotoxicity (malignant tumour)” value in [13] is given as 0. Further, the “Hepatotoxicity (benign tumour)” value in series [14] is recorded as 0.

As for `O=C(NCCN1CCC(n2c(=O)[nH]c3cc(Cl)ccc32)CC1)c1ccc(F)cc1` [HALOPEMIDE], the “Hepatotoxicity (moderate)” value in series [1] is given as 27%; in series [3], 1. For the same molecule, the “Hepatotoxicity (acute)” value is recorded as 0% in series [2] and 0 in series [4]. In addition, the “Hepatotoxicity (cytolytic)” value in [5] is 0. Besides, the “Hepatotoxicity (choleostasis)” value in [6] is recorded as 0. The “Hepatotoxicity (severe hepatitis)” value in series [7] came to 0. Moreover, the “Hepatotoxicity (chronic liver disease)” value in series [8] is given as 0. The “Hepatotoxicity (cirrhosis)” value in series [9] worked out at 0. In series [10], the “Hepatotoxicity (granulomatous hepatitis)” value came out at 0. For the same molecule, the “Hepatotoxicity (association with vascular disease)” value in [11] is 0. Also, in [12], the “Hepatotoxicity (steatosis)” value is given as 0. Moreover, the “Hepatotoxicity (malignant tumour)” value in series [13] came out at 0. Further, in series [14], the “Hepatotoxicity (benign tumour)” value is reported as 0.

As to ADALIMUMAB, the “Hepatotoxicity (moderate)” value in series [1] came to 12.1%; in [3], 1. Also, the “Hepatotoxicity (acute)” value in series [2] stood at 0%; in [4], 0. Besides, the “Hepatotoxicity (cytolytic)” value in series [5] turned out to be 0. Further, in series [6], the “Hepatotoxicity (choleostasis)” value came out at 0. Further, the “Hepatotoxicity (severe hepatitis)” value in series [7] is reported as 0. Besides, the “Hepatotoxicity (chronic liver disease)” value in series [8] is 0. Moreover, the “Hepatotoxicity (cirrhosis)” value in series [9] is 0. The “Hepatotoxicity (granulomatous hepatitis)” value in series [10] is on record as 0. In addition, the “Hepatotoxicity (association with vascular disease)” value in [11] is reported as 0. Further, the “Hepatotoxicity (steatosis)” value in [12] is reported as 0. The “Hepatotoxicity (malignant tumour)” value in series [13] amounted to 0. Besides, the “Hepatotoxicity (benign tumour)” value in [14] worked out at 0.

In the case of `Clc1ccc(COC(Cn2ccnc2)c2ccc(Cl)cc2Cl)c(Cl)c1` (stereo not drawn) [MICONAZOLE], the “Hepatotoxicity (moderate)” value in series [1] is reported as 0%; in series [3] it was 2. Moreover, the “Hepatotoxicity (acute)” value in series [2] came out at 0%; in series [4], 0. In series [5], the “Hepatotoxicity (cytolytic)” value is 0. Besides, in series [6], the “Hepatotoxicity (choleostasis)” value is 0. The “Hepatotoxicity (severe hepatitis)” value in series [7] turned out to be 0. In addition, in series [8], the “Hepatotoxicity (chronic liver disease)” value is 0. In addition, the “Hepatotoxicity (cirrhosis)” value in series [9] came to 0. Moreover, in [10], the “Hepatotoxicity (granulomatous hepatitis)” value is 0. Besides, in [11], the “Hepatotoxicity (association with vascular disease)” value worked out at 0. Also, the “Hepatotoxicity (steatosis)” value in series [12] came out at 0. In series [13], the “Hepatotoxicity (malignant tumour)” value is on record as 0. The “Hepatotoxicity (benign tumour)” value in series [14] amounted to 0.

For `CO[C@@H]1O[C@H](CO)[C@H](O)[C@H](O[C@@H]2O[C@@H](C(=O)O)[C@@H](OC)[C@H](O)[C@H]2O)[C@H]1NC(C)=O`, the “Hepatotoxicity (moderate)” value in series [1] is on record as 0%; in series [3] it was 1. The “Hepatotoxicity (acute)” value in series [2] worked out at 0%; in series [4], 0. The “Hepatotoxicity (cytolytic)” value in series [5] amounted to 0. The “Hepatotoxicity (choleostasis)” value in [6] turned out to be 0. The “Hepatotoxicity (severe hepatitis)” value in series [7] is 0. Besides, the “Hepatotoxicity (chronic liver disease)” value in series [8] turned out to be 0. Further, in series [9], the “Hepatotoxicity (cirrhosis)” value worked out at 0. The “Hepatotoxicity (granulomatous hepatitis)” value in series [10] came to 0. Also, the “Hepatotoxicity (association with vascular disease)” value in series [11] is on record as 0. For the same molecule, the “Hepatotoxicity (steatosis)” value in series [12] was 0. The “Hepatotoxicity (malignant tumour)” value in series [13] is reported as 0. Also, the “Hepatotoxicity (benign tumour)” value in series [14] is reported as 0.

For `COCCCN1CCC(NC(=O)c2cc(Cl)c(N)c3c2OCC3)CC1` [PRUCALOPRIDE], the “Hepatotoxicity (moderate)” value in series [1] is reported as 5.9%; in [3] it was 1. Further, the entries for the “Hepatotoxicity (acute)” value in series [2] and in [4] were 0% and 0, respectively. Further, the “Hepatotoxicity (cytolytic)” value in series [5] is given as 0. Further, the “Hepatotoxicity (choleostasis)” value in series [6] is 0. Moreover, the “Hepatotoxicity (severe hepatitis)” value in series [7] was 0. In addition, the “Hepatotoxicity (chronic liver disease)” value in series [8] is 0. Also, the “Hepatotoxicity (cirrhosis)” value in series [9] came to 0. The “Hepatotoxicity (granulomatous hepatitis)” value in [10] came to 0. In addition, the “Hepatotoxicity (association with vascular disease)” value in series [11] stood at 0. For the same molecule, the “Hepatotoxicity (steatosis)” value in [12] came to 0. In addition, the “Hepatotoxicity (malignant tumour)” value in series [13] was determined as 0. Further, the “Hepatotoxicity (benign tumour)” value in series [14] worked out at 0.

`O=C(O)[C@@H](S)[C@@H](S)C(=O)O`: the “Hepatotoxicity (moderate)” value in series [1] was found to be 56.7%; in series [3] it was 3. In addition, the “Hepatotoxicity (acute)” value in series [2] amounted to 0%; in series [4] it was 0. In addition, the “Hepatotoxicity (cytolytic)” value in [5] is recorded as 0. In [6], the “Hepatotoxicity (choleostasis)” value was found to be 0. For the same molecule, the “Hepatotoxicity (severe hepatitis)” value in series [7] came to 0. Besides, the “Hepatotoxicity (chronic liver disease)” value in series [8] was found to be 0. For the same molecule, the “Hepatotoxicity (cirrhosis)” value in series [9] came to 0. Further, the “Hepatotoxicity (granulomatous hepatitis)” value in series [10] turned out to be 0. Also, in [11], the “Hepatotoxicity (association with vascular disease)” value is listed as 0. Further, the “Hepatotoxicity (steatosis)” value in series [12] amounted to 0. For the same molecule, the “Hepatotoxicity (malignant tumour)” value in series [13] is given as 0. Further, the “Hepatotoxicity (benign tumour)” value in [14] stood at 0.

Source of the values: ChEMBL document CHEMBL3137667, “[Drug-induced liver injury; fourteenth updated edition of the bibliographic database of liver injuries and related drugs]” (Gastroenterol Clin Biol, 2004).
